According to US8299065B2, “Antibacterial condensed thiazoles” (Biota Europe Ltd., priority 2007, dated 2012):
Converted amounts (≈) assume the structure as drawn.

Test system: Enterococcus faecalis ATCC 29212
Assay: MIC testing against Enterococcus faecalis ATCC 29212
Type: cell-based
Conditions: ATCC29212, read-out: MICs against Enterococcus faecalis, Activity
Protocol: Minimum Inhibitory Concentration (MIC) Testing Compounds of this invention were tested for antimicrobial activity by susceptibility testing in liquid or on solid media. MICs for compounds against each strain were determined by the broth microdilution or agar dilution method according to the guidelines of the Clinical Laboratories and Standards Institute, formerly the National Committee for Clinical Laboratory Standards (Clinical Laboratories and Standards Institute. Methods for Dilution Antimicrobial Susceptibility Tests for Bacteria That Grow Aerobically; Approved Standard—Seventh Edition. Document M7-A7. CLSI, Wayne, Pa., 2006; Clinical Laboratories and Standards Institute. Methods for Antimicrobial Susceptibility Testing of Anaerobic Bacteria; Approved Standard—Sixth Edition. Document M11-A6. CLSI, Wayne, Pa., 2004).

MIC [µg/mL]	SMILES
0.25 to 1 (≈ 0.838 to 3.35 µM)	CCNC(=O)Nc1nc2cc(-c3cccnc3)ccc2s1 [Example 1, 1-Ethyl-3-(5-pyridin-3-yl-benzothiazol-2-yl)-urea]
2 to 16 (≈ 5.41 to 43.3 µM)	CCNC(=O)Nc1nc2cc(-c3ccc(CC(=O)NC)nc3)ccc2s1 [Example 2, 2-{5-[2-(3-Ethyl-ureido)-benzothiazol-5-yl]-pyridin-2-yl}-N-methyl-acetamide]
2 to 16 (≈ 5.91 to 47.3 µM)	CCNC(=O)Nc1nc2cc(-c3ccc4nncn4c3)ccc2s1 [Example 5, 1-(5-([1,2,4]triazolo[4,3-a]pyridin-6-yl)benzo[d]thiazol-2-yl)-3-ethylurea]
2 to 16 (≈ 5.93 to 47.4 µM)	CCNC(=O)Nc1nc2cc(-c3ccc4nccn4c3)ccc2s1 [Example 6, 1-ethyl-3-(5-(imidazo[1,2-a]pyridin-6-yl)benzo[d]thiazol-2-yl)urea]
2 to 16 (≈ 5.89 to 47.1 µM)	CCNC(=O)Nc1nc2cc(-c3ccc4nnnn4c3)ccc2s1 [Example 7, 1-ethyl-3-(5-(tetrazolo[1,5-a]pyridin-6-yl)benzo[d]thiazol-2-yl)urea]
2 to 16 (≈ 5.63 to 45 µM)	CCNC(=O)Nc1nc2cc(-c3cnc4c(c3)OCCN4)ccc2s1 [Example 8, 1-(5-(3,4-dihydro-2H-pyrido[3,2-b][1,4]oxazin-7-yl)benzo[d]thiazol-2-yl)-3-ethylurea]
2 to 16 (≈ 6.09 to 48.7 µM)	CCNC(=O)Nc1nc2cc(-c3ccc(CO)nc3)ccc2s1 [Example 9, 1-ethyl-3-(5-(6-(hydroxymethyl)pyridin-3-yl)benzo[d]thiazol-2-yl)urea]
2 to 16 (≈ 5.1 to 40.8 µM)	CCNC(=O)Nc1nc2cc(-c3cnc(-n4ccccc4=O)cn3)ccc2s1 [Example 10, 1-ethyl-3-(5-(5-(2-oxopyridin-1(2H)-yl)pyrazin-2-yl)benzo[d]thiazol-2-yl)urea]
2 to 16 (≈ 6.03 to 48.3 µM)	CCNC(=O)Nc1nc2cc(-c3cnc(CO)n3C)ccc2s1 [Example 11, 1-ethyl-3-(5-(2-(hydroxymethyl)-1-methyl-1H-imidazol-5-yl)benzo[d]thiazol-2-yl)urea]
2 to 16 (≈ 4.99 to 40 µM)	CCNC(=O)Nc1nc2cc(-c3ccc(=O)n(CC(=O)OCC)c3)ccc2s1 [Example 12, ethyl 2-(5-(2-(3-ethylureido)benzo[d]thiazol-5-yl)-2-oxopyridin-1(2H)-yl)acetate]
2 to 16 (≈ 5.17 to 41.4 µM)	CCNC(=O)Nc1nc2cc(-c3ccc(=O)n(CCOCC)c3)ccc2s1 [Example 13, 1-(5-(1-(2-ethoxyethyl)-6-oxo-1,6-dihydropyridin-3-yl)benzo[d]thiazol-2-yl)-3-ethylurea]
2 to 16 (≈ 6.07 to 48.6 µM)	CCNC(=O)Nc1nc2cc(-c3cc(C)oc(=O)c3)ccc2s1 [Example 14, 1-ethyl-3-(5-(6-methyl-2-oxo-2H-pyran-4-yl)benzo[d]thiazol-2-yl)urea]
2 to 16 (≈ 5.61 to 44.9 µM)	CCNC(=O)Nc1nc2cc(-c3ccc(C(=O)OC)nc3)ccc2s1 [Example 15, methyl 5-(2-(3-ethylureido)benzo[d]thiazol-5-yl)picolinate]
2 to 16 (≈ 4.99 to 39.9 µM)	CCNC(=O)Nc1nc2cc(-c3cnn(CCN4CCOCC4)c3)ccc2s1 [Example 16, 1-ethyl-3-(5-(1-(2-morpholinoethyl)-1H-pyrazol-4-yl)benzo[d]thiazol-2-yl)urea]
2 to 16 (≈ 6.96 to 55.7 µM)	CCNC(=O)Nc1nc2cc(-c3cc[nH]n3)ccc2s1 [Example 17, 1-(5-(1H-pyrazol-3-yl)benzo[d]thiazol-2-yl)-3-ethylurea]
2 to 16 (≈ 6.64 to 53.1 µM)	CCNC(=O)Nc1nc2cc(-c3cnn(C)c3)ccc2s1 [Example 18, 1-ethyl-3-(5-(1-methyl-1H-pyrazol-4-yl)benzo[d]thiazol-2-yl)urea]
0.25 to 1 (≈ 0.677 to 2.71 µM)	CCNC(=O)Nc1nc2cc(-c3cnc4c(c3)OCCN4C)ccc2s1 [Example 19, 1-ethyl-3-(5-(4-methyl-3,4-dihydro-2H-pyrido[3,2-b][1,4]oxazin-7-yl)benzo[d]thiazol-2-yl)urea]
0.25 to 1 (≈ 0.718 to 2.87 µM)	CCNC(=O)Nc1nc2cc(-c3cncc4ccccc34)ccc2s1 [Example 20, 1-ethyl-3-(5-(isoquinolin-4-yl)benzo[d]thiazol-2-yl)urea]
2 to 16 (≈ 6.96 to 55.7 µM)	CCNC(=O)Nc1nc2cc(-c3cn[nH]c3)ccc2s1 [Example 21, 1-(5-(1H-pyrazol-4-yl)benzo[d]thiazol-2-yl)-3-ethylurea]
2 to 16 (≈ 5.98 to 47.8 µM)	CCNC(=O)Nc1nc2cc(-c3cnc(OC)s3)ccc2s1 [Example 22, 1-ethyl-3-(5-(2-methoxythiazol-5-yl)benzo[d]thiazol-2-yl)urea]
2 to 16 (≈ 6.24 to 49.9 µM)	CCNC(=O)Nc1nc2cc(-c3cnc(O)s3)ccc2s1 [Example 23, 1-ethyl-3-(5-(2-hydroxythiazol-5-yl)benzo[d]thiazol-2-yl)urea]

MIC [µg/mL]	SMILES
2 to 16 (≈ 5.93 to 47.4 µM)	CCNC(=O)Nc1nc2cc(-c3cnc4ccccn34)ccc2s1 [Example 24, 1-ethyl-3-(5-(imidazo[1,2-a]pyridin-3-yl)benzo[d]thiazol-2-yl)urea]
0.25 to 1 (≈ 0.739 to 2.96 µM)	CCNC(=O)Nc1nc2cc(-c3ccc4ncnn4c3)ccc2s1 [Example 25, 1-(5-([1,2,4]triazolo[1,5-a]pyridin-6-yl)benzo[d]thiazol-2-yl)-3-ethylurea]
2 to 16 (≈ 5.63 to 45 µM)	CCNC(=O)Nc1nc2cc(-c3ccc(NC(C)=O)nc3)ccc2s1 [Example 26, N-(5-(2-(3-ethylureido)benzo[d]thiazol-5-yl)pyridin-2-yl)acetamide]
2 to 16 (≈ 5.22 to 41.7 µM)	CCNC(=O)Nc1nc2cc(-c3ccc(N4CCOCC4)nc3)ccc2s1 [Example 27, 1-ethyl-3-(5-(6-morpholinopyridin-3-yl)benzo[d]thiazol-2-yl)urea]
2 to 16 (≈ 5.47 to 43.8 µM)	CCNC(=O)Nc1nc2cc(-c3cnc(-n4ccnc4)nc3)ccc2s1 [Example 28, 1-(5-(2-(1H-imidazol-1-yl)pyrimidin-5-yl)benzo[d]thiazol-2-yl)-3-ethylurea]
2 to 16 (≈ 6.36 to 50.9 µM)	CCNC(=O)Nc1nc2cc(-c3cc[nH]c(=O)c3)ccc2s1 [Example 29, 1-ethyl-3-(5-(2-oxo-1,2-dihydropyridin-4-yl)benzo[d]thiazol-2-yl)urea]
0.25 to 1 (≈ 0.657 to 2.63 µM)	CCNC(=O)Nc1nc2cc(-c3ccc(-c4nnn(C)n4)nc3)ccc2s1 [Example 30, 1-ethyl-3-(5-(6-(2-methyl-2H-tetrazol-5-yl)pyridin-3-yl)benzo[d]thiazol-2-yl)urea]
0.25 to 1 (≈ 0.647 to 2.59 µM)	CCNC(=O)Nc1nc2cc(-c3cc(C)n(CCOC)c(=O)c3)ccc2s1 [Example 31, 1-ethyl-3-(5-(1-(2-methoxyethyl)-6-methyl-2-oxo-1,2-dihydropyridin-4-yl)benzo[d]thiazol-2-yl)urea]
2 to 16 (≈ 5.37 to 43 µM)	CCNC(=O)Nc1nc2cc(-c3cc(C)n(CCO)c(=O)c3)ccc2s1 [Example 32, 1-ethyl-3-(5-(1-(2-hydroxyethyl)-6-methyl-2-oxo-1,2-dihydropyridin-4-yl)benzo[d]thiazol-2-yl)urea]
0.25 to 1 (≈ 0.577 to 2.31 µM)	CCNC(=O)Nc1nc2cc(-c3cc(C)n(Cc4cccc(C)n4)c(=O)c3)ccc2s1 [Example 33, 1-ethyl-3-(5-(6-methyl-1-((6-methylpyridin-2-yl)methyl)-2-oxo-1,2-dihydropyridin-4-yl)benzo[d]thiazol-2-yl)urea]
0.25 to 1 (≈ 0.596 to 2.38 µM)	CCNC(=O)Nc1nc2cc(-c3cc(C)n(Cc4cccnc4)c(=O)c3)ccc2s1 [Example 34, 1-ethyl-3-(5-(6-methyl-2-oxo-1-(pyridin-3-ylmethyl)-1,2-dihydropyridin-4-yl)benzo[d]thiazol-2-yl)urea]
0.25 to 1 (≈ 0.596 to 2.38 µM)	CCNC(=O)Nc1nc2cc(-c3cc(C)n(Cc4ccccn4)c(=O)c3)ccc2s1 [Example 35, 1-ethyl-3-(5-(6-methyl-2-oxo-1-(pyridin-2-ylmethyl)-1,2-dihydropyridin-4-yl)benzo[d]thiazol-2-yl)urea]
2 to 16 (≈ 4.61 to 36.9 µM)	CCNC(=O)Nc1nc2cc(-c3cc(C)n(C(C)c4ccccn4)c(=O)c3)ccc2s1 (stereo not drawn) [Example 36, 1-ethyl-3-(5-(6-methyl-2-oxo-1-(1-(pyridin-2-yl)ethyl)-1,2-dihydropyridin-4-yl)benzo[d]thiazol-2-yl)urea]
2 to 16 (≈ 4.44 to 35.5 µM)	CCNC(=O)Nc1nc2cc(-c3ccc4c(=O)c(C(=O)OCC)cn(C)c4c3)ccc2s1 [Example 37, ethyl 7-(2-(3-ethylureido)benzo[d]thiazol-5-yl)-1-methyl-4-oxo-1,4-dihydroquinoline-3-carboxylate]
0.25 to 1 (≈ 0.669 to 2.68 µM)	CCNC(=O)Nc1nc2cc(-c3ccc(NC(C)=O)nc3)c(F)cc2s1 [Example 38, N-(5-(2-(3-ethylureido)-6-fluorobenzo[d]thiazol-5-yl)pyridin-2-yl)acetamide]
2 to 16 (≈ 5.11 to 40.9 µM)	CCNC(=O)Nc1nc2cc(-c3cnn(CC(=O)OCC)c3)c(F)cc2s1 [Example 39, ethyl 2-(4-(2-(3-ethylureido)-6-fluorobenzo[d]thiazol-5-yl)-1H-pyrazol-1-yl)acetate]
0.25 to 1 (≈ 0.72 to 2.88 µM)	CCNC(=O)Nc1nc2cc(-c3cc(C)oc(=O)c3)c(F)cc2s1 [Example 40, 1-ethyl-3-(6-fluoro-5-(6-methyl-2-oxo-2H-pyran-4-yl)benzo[d]thiazol-2-yl)urea]
2 to 16 (≈ 4.49 to 35.9 µM)	CCNC(=O)Nc1nc2cc(-c3cnc(N4CCN(CCO)CC4)nc3)c(F)cc2s1 [Example 41, 1-ethyl-3-(6-fluoro-5-(2-(4-(2-hydroxyethyl)piperazin-1-yl)pyrimidin-5-yl)benzo[d]thiazol-2-yl)urea]
2 to 16	CCNC(=O)Nc1nc2cc(-c3cnc(N4CCNCC4)nc3)c(F)cc2s1.Cl [Example 42, 1-ethyl-3-(6-fluoro-5-(2-(piperazin-1-yl)pyrimidin-5-yl)benzo[d]thiazol-2-yl)urea hydrochloride salt]
0.25 to 1 (≈ 0.545 to 2.18 µM)	CCNC(=O)Nc1nc2cc(-c3cnc(N4CCC(C(=O)OC)CC4)nc3)c(F)cc2s1 [Example 43, methyl 1-(5-(2-(3-ethylureido)-6-fluorobenzo[d]thiazol-5-yl)pyrimidin-2-yl)piperidine-4-carboxylate]
< 0.25	CCNC(=O)Nc1nc2cc(-c3cnc(N4CCC(C(=O)O)CC4)nc3)c(F)cc2s1 [Example 44, 1-(5-(2-(3-ethylureido)-6-fluorobenzo[d]thiazol-5-yl)pyrimidin-2-yl)piperidine-4-carboxylic acid]
